In patent US10912771B1, “Methods for the administration of certain VMAT2 inhibitors” (Neurocrine Biosciences, Inc., priority 2017, dated 2021):
“Also recorded” adds a separate entry of the source. Where two headings read alike, the source gives them in different places. One block for each compound: values may come before it.

Legend:
[1] = Phase 1 open-label one-sequence crossover drug-interaction study: plasma pharmacokinetics of NBI-98854 and metabolites with and without rifampin; type: in vivo, human; settings: for half-life: read-out: Mean t1/2 (converted); for AUC(0-inf) / Cmax / MRT / AUC(0-t) / Tlag / t1/2: Mean (SD); for AUC(0-t): plasma
Procedure: (§1) Subjects received a single dose of 80 mg valbenazine tosylate on Days 1 and 11 between 0800 and 1000 hours. In addition, subjects received 600 mg rifampin (300 mg×2 capsules) once daily on Days 5 (after collection of the 96-hour PK sample) through 14 between 0830 and 1030 hours. Subjects were required to fast overnight before receiving the study drugs (valbenazine tosylate and rifampin). Subjects were discharged from the study center on Day 15 (final study day or upon early termination) after all safety evaluations and study assessments had been completed.
Safety was assessed throughout the study.
NBI-98854 40 mg capsules were administered orally. The dose of NBI-98854 was based on ditosylate salt (dose expressed as free base). Subjects received a single dose of NBI-98854 80 mg (as two 40 mg capsules) twice during the study, on Days 1 and 11.
Rifampin 300 mg capsules were administered orally. Subjects received a single dose of rifampin 600 mg (as two 300 mg capsules) on Days 5 (after collection of the 96 hour NBI-98854 PK sample) through 14 between 0830 and 1030 hours.
The following plasma PK parameters were calculated only for NBI-98854: • Apparent systemic clearance after oral administration (CL/F) • Apparent volume of distribution during the terminal phase after oral administration (Vz/F)
The last significant figure was rounded up if the digit to the right of it was >5, and was rounded down if the digit to the right of it was […].
The last significant figure was rounded up if the digit to the right of it was ≥5, and was rounded down if the digit to the right of it was ≤4.
(§2) An analysis of variance (ANOVA) model was used to compare AUC0-∞ and Cmax for NBI-98854 administered with rifampin (“test”) versus AUC0-∞ and Cmax for NBI-98854 alone (“reference”). The PK parameters for metabolites of NBI-98854 and rifampin were also evaluated. Safety data were summarized using descriptive statistics.

[2] = molecular target: T1, VMAT2 (Homo sapiens, UniProt Q05940); assay: Inhibition of [3H]-DHTBZ binding to human platelets
T1 construct: from tissue; host or cells: human platelets (homogenates)

[3] = molecular target: T2, human VMAT1 transporter (Homo sapiens, UniProt P54219); assay: Uptake in cells expressing VMAT1; type: cell-based; settings: TBZ, VBZ and metabolites at concentrations up to 10 μM
T2 construct: expressed in transfected cells
T2 sequence (P54219 1-525): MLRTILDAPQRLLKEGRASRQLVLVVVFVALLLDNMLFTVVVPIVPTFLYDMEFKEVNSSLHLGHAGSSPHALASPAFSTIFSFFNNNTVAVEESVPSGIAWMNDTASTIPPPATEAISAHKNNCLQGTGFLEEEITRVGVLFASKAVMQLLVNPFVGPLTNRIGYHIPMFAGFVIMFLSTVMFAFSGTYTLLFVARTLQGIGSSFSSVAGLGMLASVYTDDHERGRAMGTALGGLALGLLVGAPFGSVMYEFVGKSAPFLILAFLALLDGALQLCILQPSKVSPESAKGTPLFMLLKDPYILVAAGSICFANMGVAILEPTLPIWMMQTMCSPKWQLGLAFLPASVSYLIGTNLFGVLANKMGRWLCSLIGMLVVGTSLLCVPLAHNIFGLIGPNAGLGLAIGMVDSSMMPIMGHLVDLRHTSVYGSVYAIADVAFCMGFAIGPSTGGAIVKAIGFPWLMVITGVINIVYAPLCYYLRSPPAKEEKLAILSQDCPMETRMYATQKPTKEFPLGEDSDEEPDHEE

[4] = test system: more than 80 targets (GPCRs, cell-surface monoamine transporters, ion channels including HERG); assay: Cerep multi-target activity screen; settings: receptors, monoamine transporters, and ion channels
[5] = Ptosis, in vivo surrogate measure of pharmacological effect
[6] = molecular target: Serotonin 5-HT7 (Homo sapiens, UniProt P34969); assay: Cerep screen, Serotonin 5-HT7; settings: 1 or 10 μM final concentration; n=2
[7] = molecular target: T3, Serotonin 5-HT1A (Homo sapiens, UniProt P08908); assay: Cerep screen, Serotonin 5-HT1A; settings: 1 or 10 μM final concentration; n=2
T3 sequence (P08908 1-422): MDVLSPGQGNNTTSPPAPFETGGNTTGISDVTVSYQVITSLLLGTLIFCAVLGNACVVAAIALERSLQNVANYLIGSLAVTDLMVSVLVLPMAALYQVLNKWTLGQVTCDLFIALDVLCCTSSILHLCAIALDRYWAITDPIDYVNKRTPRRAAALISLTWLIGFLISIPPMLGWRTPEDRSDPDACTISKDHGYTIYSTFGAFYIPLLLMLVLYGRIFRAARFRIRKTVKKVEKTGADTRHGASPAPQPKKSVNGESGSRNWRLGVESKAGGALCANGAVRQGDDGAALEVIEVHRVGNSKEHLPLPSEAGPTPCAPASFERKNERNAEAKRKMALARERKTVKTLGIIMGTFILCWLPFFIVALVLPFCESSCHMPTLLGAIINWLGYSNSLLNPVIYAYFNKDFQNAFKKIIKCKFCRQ

[8] = Phase 1 drug-interaction study: safety, treatment-emergent adverse events; type: in vivo, human; settings: Safety Analysis Set, healthy subjects, by treatment period
Procedure: as §1, §2

[9] = both sexes, human, oral, plasma metabolite NBI-136110, NBI-98854 80 mg + rifampin 600 mg, N = 11
[10] = both sexes, human, oral, plasma metabolite NBI-136110, NBI-98854 80 mg alone, N = 11
[11] = plasma metabolite NBI-136110, NBI-98854 80 mg + rifampin 600 mg, N = 11
[12] = plasma metabolite NBI-136110, NBI-98854 80 mg alone, N = 11

T1 sequence (Q05940 whole entry): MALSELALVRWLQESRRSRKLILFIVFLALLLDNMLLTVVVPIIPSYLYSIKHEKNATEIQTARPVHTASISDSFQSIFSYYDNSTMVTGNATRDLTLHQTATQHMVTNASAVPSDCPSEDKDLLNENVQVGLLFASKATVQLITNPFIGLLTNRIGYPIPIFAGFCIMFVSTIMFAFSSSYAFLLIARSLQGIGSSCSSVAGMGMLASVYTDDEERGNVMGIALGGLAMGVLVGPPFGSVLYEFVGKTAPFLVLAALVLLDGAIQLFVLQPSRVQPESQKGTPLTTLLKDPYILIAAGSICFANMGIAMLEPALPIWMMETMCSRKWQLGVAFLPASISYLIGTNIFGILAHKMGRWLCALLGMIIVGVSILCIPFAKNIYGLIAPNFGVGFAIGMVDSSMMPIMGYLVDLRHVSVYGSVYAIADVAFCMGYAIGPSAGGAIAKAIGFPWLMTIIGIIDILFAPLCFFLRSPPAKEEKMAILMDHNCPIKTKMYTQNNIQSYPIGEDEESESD
Sequence of Serotonin 5-HT7 (P34969 whole entry): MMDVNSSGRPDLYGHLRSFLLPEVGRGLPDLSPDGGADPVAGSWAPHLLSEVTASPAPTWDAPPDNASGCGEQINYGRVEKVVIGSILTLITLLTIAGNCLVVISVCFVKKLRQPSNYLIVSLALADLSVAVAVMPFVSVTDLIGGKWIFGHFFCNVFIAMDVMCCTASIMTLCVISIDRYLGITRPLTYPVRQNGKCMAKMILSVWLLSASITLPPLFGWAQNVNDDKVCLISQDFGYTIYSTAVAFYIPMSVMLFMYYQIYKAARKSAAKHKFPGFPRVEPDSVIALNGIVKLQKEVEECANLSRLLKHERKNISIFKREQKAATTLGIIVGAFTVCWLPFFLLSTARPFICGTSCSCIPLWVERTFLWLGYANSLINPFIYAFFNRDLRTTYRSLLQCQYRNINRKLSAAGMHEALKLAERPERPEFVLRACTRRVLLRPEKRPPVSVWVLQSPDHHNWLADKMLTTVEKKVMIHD

half-life ([1]; both sexes, human, oral, 80 mg, plasma analyte, NBI-98854 alone): 27 h | Tmax ([1]; both sexes, human, oral, 80 mg, plasma analyte, NBI-98854 alone, read-out: Median tmax): 3 h | half-life ([1]; both sexes, human, oral, plasma analyte, NBI-98854 administered with rifampin): 12 h | Tmax ([1]; both sexes, human, oral, plasma analyte, NBI-98854 in combination with rifampin vs NBI-98854 alone, read-out: Median tmax shorter): 1.5 h | AUC(0-inf) [1, 9]: 663 ng·h/mL | Cmax [1, 9]: 81.5 ng/mL | MRT [1, 9]: 12 h | AUC(0-inf) [1, 10]: 2080 ng·h/mL | Cmax [1, 10]: 59.8 ng/mL | MRT [1, 10]: 39 h | AUC(0-t) ([1]; both sexes, human, oral, 80 mg, plasma metabolite NBI-136110, NBI-98854 80 mg alone, N = 11, read-out: AUC0-24): 963 ng·h/mL | AUC(0-t) ([1]; both sexes, human, oral, 80 mg, plasma metabolite NBI-136110, NBI-98854 80 mg alone, N = 11, read-out: AUC0-tlast): 1890 ng·h/mL | AUC(0-t) ([1]; both sexes, human, oral, plasma metabolite NBI-136110, NBI-98854 80 mg + rifampin 600 mg, N = 11, read-out: AUC0-24): 554 ng·h/mL | AUC(0-t) ([1]; both sexes, human, oral, plasma metabolite NBI-136110, NBI-98854 80 mg + rifampin 600 mg, N = 11, read-out: AUC0-tlast): 658 ng·h/mL | Mean t1/2 shorter ([1]; plasma analyte, NBI-98854 in combination with rifampin vs NBI-98854 alone): approximately 40% | decrease in AUC0-∞ ([1]; plasma analyte, NBI-98854 plus rifampin compared with NBI-98854 alone): approximately 70% | Tlag [1, 11]: 0.16 (0.13) hr | t1/2 [1, 11]: 12 (3.0) hr | Tmax ([1]; plasma metabolite NBI-136110, NBI-98854 80 mg + rifampin 600 mg, N = 11, Median (min, max)): 1.5 (0.75, 2.1) hr | Tlag [1, 12]: 0.23 (0.14) hr | t1/2 [1, 12]: 27 (6.7) hr | Tmax ([1]; plasma metabolite NBI-136110, NBI-98854 80 mg alone, N = 11, Median (min, max)): 3.0 (2.0, 8.0) hr | Affinity Relative to R,R,R-DHTBZ [2]: 67 | pKi mean (SEM) ([2]; n=4): 6.65 (0.04)
SMILES: COc1cc2c(cc1OC)[C@H]1C[C@@H](OC(=O)[C@@H](N)C(C)(C)O)[C@H](CC(C)C)CN1CC2 [NBI-136110]
inhibition of uptake through VMAT1 [3]: no significant inhibitory activity; also recorded: no significant effect | affinity for more than 80 binding sites [4]: little to no affinity

SMILES: COc1cc2c(cc1OC)C1CC(=O)C(CC(C)C)CN1CC2 (stereo not drawn) [TBZ, reference compound]
inhibition of uptake through VMAT1 [3]: no significant inhibitory activity; also recorded: no significant effect | induction of ptosis [5]: induced ptosis in an equivalent manner

SMILES: COc1cc2c(cc1OC)[C@H]1C[C@H](O)[C@H](CC(C)C)CN1CC2 [S,R,R-DHTBZ, reference compound]
percent of control specific binding, Serotonin 5-HT7 [6]: 80% | percent of control specific binding, Serotonin 5-HT1A [7]: 69%

inhibition of uptake through VMAT1 [3]: substantially inhibited uptake
SMILES: COC(=O)[C@H]1[C@H]2C[C@@H]3c4[nH]c5cc(OC)ccc5c4CCN3C[C@H]2C[C@@H](OC(=O)c2cc(OC)c(OC)c(OC)c2)[C@@H]1OC [reserpine, reference compound]

SMILES: CO[C@H]1/C=C/O[C@@]2(C)Oc3c(C)c(O)c4c(O)c(c(/C=N/N5CCN(C)CC5)c(O)c4c3C2=O)NC(=O)/C(C)=C\C=C\[C@H](C)[C@H](O)[C@@H](C)[C@@H](O)[C@@H](C)[C@H](OC(C)=O)[C@@H]1C [Rifampin, reference compound]
Subjects who experienced a TEAE: Overall [8]: 12 (100) n (%) | TEAE: Abdominal pain [8]: 0 n (%) | TEAE: Abdominal pain upper [8]: 1 (8.3) n (%) | TEAE: Arthropod bite [8]: 0 n (%) | TEAE: Chromaturia [8]: 12 (100) n (%) | TEAE: Headache [8]: 0 n (%) | TEAE: Hypoaesthesia [8]: 0 n (%) | TEAE: Non-cardiac chest pain [8]: 1 (8.3) n (%) | TEAE: Paraesthesia [8]: 1 (8.3) n (%) | TEAE: Vessel puncture site haemorrhage [8]: 0 n (%) | TEAE: Chromaturia ([8]; listed as rifampin): 12 n (%)
